From patent CN102066974A, “用于蛋白、肽和其他分子的f-18标记的改进方法和组合物” (Immunomedics Inc, priority 2008, dated 2011)
Several values for one entry are separate records, joined by “and”; a condition that tells them apart may be missing. Equal entries are not always repeated. Blank lines part the entries; values can stand above or below the compound they belong to. Numbered stars: 1 amine (or outer) side, 2 acyl side, 3 side chain; on linkers, the order of the positions; unused ones are H or OH. Square brackets hold non-standard residues; d marks the D form. Side chains are listed from the residue outwards. Peptide text beside a SMILES is read from it. * marks the point of attachment. NOTA(2S-Bn(4-NHCS)) = O=C(O)CN1CCN(CC(=O)O)C[C@H](Cc2ccc(NC(=S)*)cc2)N(CC(=O)O)CC1; X1 = O=C(O)CN1CCN(CC(=O)O)CC(Cc2ccc(NC(=S)*)cc2)N(CC(=O)O)CC1; DOTA = O=C(O)CN1CCN(CC(=O)O)CCN(CC(=O)*)CCN(CC(=O)O)CC1; DTPA = O=C(O)CN(CCN(CC(=O)O)CC(=O)O)CCN(CC(=O)O)CC(=O)*; NH(2-(imidazol-4-yl)ethyl) = c1ncc(CCN*)[nH]1; NOTA = O=C(O)CN1CCN(CC(=O)O)CCN(CC(=O)*)CC1; X2 = N[C@H](CC(=O)*)c1ccccc1Br; Suc = O=C(CCC(=O)[*:2])[*:1]; Dap = NC[C@H](N)C(=O)O; Aoc = NCCCCCCCC(=O)O

Key:
LS174T肿瘤 [1] = assay: PET/CT image quantification (region of interest ratios); conditions: mouse, in vivo
LS174T肿瘤 [2] = assay: TF2-pretargeted biodistribution in BALB/c nude mice with s.c. LS174T tumours (Example 27)
AR42J肿瘤 = assay: Biodistribution in BALB/c nude mice with s.c. AR42J tumours; assay type: in vivo, mouse; conditions: 2 h p.i.
LS174 T异种移植物 = assay: Biodistribution of 111In-IMP 449 and [Al18F]IMP 449 with or without TF2 in nude mice with sc LS174T xenografts; assay type: in vivo, mouse; conditions: 1 h after peptide
[3] = Stability of Al18F-peptide complex in water (peptide labelling screen); assay type: physicochemical
PC-3细胞 = assay type: binding; conditions: first experiment, inhibitor 56 to 0.44 nM
[4] = Biodistribution of unbound 18F fraction and purified [Al18F]IMP 449 in SCID mice, no pretargeting; assay type: in vivo, mouse; conditions: 1 h p.i., no bsMAb
CaPan1异种移植物 = assay: TF10-pretargeted biodistribution in nude mice with CaPan1 xenografts; assay type: in vivo, mouse; conditions: 1 h after peptide, TF10 (162μg) pretargeted 18 h before
[5] = Stability of labelled peptide in human serum at 37℃, HPLC; assay type: in vitro ADME; conditions: for activity still attached to peptide: crude 18F labelling mixture (35% bound at start), pooled human serum 37℃; for 18F-labelled peptide stable in serum: purified 18F-labelled peptide
RIIα二聚体 = RIIα二聚体 (Homo sapiens, UniProt P13861); conditions: Stokka et al. 2006; cited from earlier work
Chain of RIIα二聚体 (P13861 whole entry): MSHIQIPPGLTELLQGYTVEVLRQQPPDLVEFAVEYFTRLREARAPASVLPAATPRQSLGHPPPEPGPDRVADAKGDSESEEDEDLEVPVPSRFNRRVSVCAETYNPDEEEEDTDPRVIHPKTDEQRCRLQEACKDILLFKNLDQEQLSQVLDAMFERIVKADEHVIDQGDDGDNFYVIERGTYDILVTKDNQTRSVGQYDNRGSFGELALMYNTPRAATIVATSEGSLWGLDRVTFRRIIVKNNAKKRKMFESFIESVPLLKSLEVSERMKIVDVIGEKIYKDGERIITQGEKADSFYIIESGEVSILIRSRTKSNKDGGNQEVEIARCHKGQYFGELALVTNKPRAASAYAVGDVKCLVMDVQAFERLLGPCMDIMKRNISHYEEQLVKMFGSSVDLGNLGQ

H1和H2组胺受体 = assay: In vitro study on cell lines bearing H1 and H2 histamine receptors; assay type: cell-based
[6] = in vivo

Compound: NC(=O)[C@@H](CCCCNC(=O)CNC(=O)CCC(=O)NCCc1c[nH]cn1)NC(=O)[C@@H](CCC(=O)O)NC(=O)[C@@H](CCCCNC(=O)CNC(=O)CCC(=O)NCCc1c[nH]cn1)NC(=O)[C@@H](Cc1ccc(O)cc1)NC(=O)CN1CCN(CC(=O)O)CCN(CC(=O)O)CCN(CC(=O)O)CC1 [68Ga-IMP 288, metal not drawn] ({DOTA}-[dY][dK]([Gly-Suc-NH(2-(imidazol-4-yl)ethyl)])[dE][dK]([Gly-Suc-NH(2-(imidazol-4-yl)ethyl)])-NH2)
inflamed muscle-background ratio in PET image (LS174T肿瘤 [1]): 8.9 | tumour-inflamed tissue ratio in PET image (LS174T肿瘤 [1]): 5.4 | LS174T tumour uptake without TF2 pretargeting (LS174T肿瘤 [2]; 1 h p.i.): 0.20±0.03 %ID/g | inflamed muscle-blood ratio (LS174T肿瘤 [2]; mouse, in vivo): 5.9±2.9 | tumour-inflamed muscle ratio (LS174T肿瘤 [2]; mouse, in vivo): 12.5±2.1

AR42J tumour uptake (AR42J肿瘤): 29.2±0.5 %ID/g | kidney retention (AR42J肿瘤): 16.2±2.86 %ID/g | lung uptake (AR42J肿瘤): 4.0±0.9 %ID/g
Compound: C[C@@H](O)[C@@H]1NC(=O)[C@H](CCCCN)NC(=O)[C@@H](Cc2c[nH]c3ccccc23)NC(=O)[C@H](Cc2ccccc2)NC(=O)[C@@H](NC(=O)[C@@H](Cc2ccccc2)NC(=O)CN2CCN(CC(=O)O)CCN(CC(=O)O)CC2)CSSC[C@@H](C(=O)N[C@H](CO)[C@@H](C)O)NC1=O [68Ga-IMP 466, metal not drawn]

Compound: NC(=O)[C@@H](CCCCNC(=O)CNC(=O)CCC(=O)NCCc1c[nH]cn1)NC(=O)[C@@H](CCC(=O)O)NC(=O)[C@@H](CCCCNC(=O)CNC(=O)CCC(=O)NCCc1c[nH]cn1)NC(=O)[C@@H](Cc1ccc(O)cc1)NC(=O)CN1CCN(CC(=O)O)CCN(CC(=O)O)CCN(CC(=O)O)CC1 [111In-IMP 288, metal not drawn] ({DOTA}-[dY][dK]([Gly-Suc-NH(2-(imidazol-4-yl)ethyl)])[dE][dK]([Gly-Suc-NH(2-(imidazol-4-yl)ethyl)])-NH2)
kidney uptake (LS174T肿瘤 [2]; 0.1 nmol peptide, independent of bsMAb dose): 2 %ID/g

Compound: C[C@@H](NC(=S)Nc1ccc(CC2CN(CC(=O)O)CCN(CC(=O)O)CCN2CC(=O)O)cc1)C(=O)N[C@H](CCCCNC(=O)CNC(=O)CCC(=O)NCCc1c[nH]cn1)C(=O)N[C@H](Cc1ccc(O)cc1)C(=O)N[C@H](CCCCNC(=O)CNC(=O)CCC(=O)NCCc1c[nH]cn1)C(N)=O (stereo partly drawn) [111In-IMP 449, metal not drawn] (X1-[dA][dK]([Gly-Suc-NH(2-(imidazol-4-yl)ethyl)])[dY][dK]([Gly-Suc-NH(2-(imidazol-4-yl)ethyl)])-NH2)
大肠 (large intestine) uptake, individual animals (LS174 T异种移植物; no pretargeting antibody): 0.253 %ID/g | 大肠 (large intestine) uptake, mean (LS174 T异种移植物; no pretargeting antibody): 0.237 %ID/g | 胃 (stomach) uptake, individual animals (LS174 T异种移植物; no pretargeting antibody): 0.329 %ID/g | 脑 (brain) uptake, individual animals (LS174 T异种移植物; no pretargeting antibody): 0.197 %ID/g

AR42J tumour uptake (AR42J肿瘤): 28.3±5.7 %ID/g | blood level (AR42J肿瘤): 0.10±0.07 %ID/g | bone uptake (AR42J肿瘤): 0.33±0.07 %ID/g | kidney retention (AR42J肿瘤): 9.96±1.27 %ID/g | lung uptake (AR42J肿瘤): 1.9±0.4 %ID/g | tumour-blood ratio (AR42J肿瘤): 299±88 | AR42J tumour uptake with excess unlabelled IMP 466 (AR42J肿瘤; receptor blocking): 8.6±0.7 %ID/g
Compound: C[C@@H](O)[C@@H]1NC(=O)[C@H](CCCCN)NC(=O)[C@@H](Cc2c[nH]c3ccccc23)NC(=O)[C@H](Cc2ccccc2)NC(=O)[C@@H](NC(=O)[C@@H](Cc2ccccc2)NC(=O)CN2CCN(CC(=O)O)CCN(CC(=O)O)CC2)CSSC[C@@H](C(=O)N[C@H](CO)[C@@H](C)O)NC1=O [Al18F-IMP 466]

stability of Al18F complex relative to IMP 272 [3]: 显著更稳定
Compound: C[C@@H](NC(=O)[C@H](CNC(=O)C[C@@H](N)c1ccccc1Br)NC(=O)CN(CCN(CCN(CC(=O)O)CC(=O)O)CC(=O)O)CC(=O)O)C(=O)N[C@H](CCCCNC(=O)CNC(=O)CCC(=O)NCCc1c[nH]cn1)C(=O)N[C@H](C)C(=O)N[C@H](CCCCNC(=O)CNC(=O)CCC(=O)NCCc1c[nH]cn1)C(N)=O [IMP 375, DTPA-Dpr(2-Br-Phe-CHNH2-CH2-CO-)-D-Ala-D-Lys(HSG)-D-Ala-D-Lys(HSG)-NH2] ({DTPA}-[Dap](X2)[dA][dK]([Gly-Suc-NH(2-(imidazol-4-yl)ethyl)])[dA][dK]([Gly-Suc-NH(2-(imidazol-4-yl)ethyl)])-NH2)

Compound: CSCC[C@H](NC(=O)[C@H](CC(C)C)NC(=O)[C@H](Cc1c[nH]cn1)NC(=O)CNC(=O)[C@@H](NC(=O)[C@H](C)NC(=O)[C@H](Cc1c[nH]c2ccccc12)NC(=O)[C@@H](NC(=O)[C@H](Cc1c[nH]c2ccccc12)NC(=O)[C@H](CCC(N)=O)NC(=O)CCCCCCCNC(=O)CN1CCN(CC(=O)O)CCN(CC(=O)O)CC1)C(C)C)C(C)C)C(N)=O [IMP 468] ({NOTA-Aoc}-QWVWAVGHLM-NH2)
blocking of 125I-BBN binding (PC-3细胞): 阻断125I-BBN的结合

Compound: C[C@@H](NC(=S)Nc1ccc(C[C@H]2CN(CC(=O)O)CCN(CC(=O)O)CCN2CC(=O)O)cc1)C(=O)N[C@H](CCCCNC(=O)CNC(=O)CCC(=O)NCCc1c[nH]cn1)C(=O)N[C@H](Cc1ccc(O)cc1)C(=O)N[C@H](CCCCNC(=O)CNC(=O)CCC(=O)NCCc1c[nH]cn1)C(N)=O [[Al18F]IMP 449] ({NOTA(2S-Bn(4-NHCS))}-[dA][dK]([Gly-Suc-NH(2-(imidazol-4-yl)ethyl)])[dY][dK]([Gly-Suc-NH(2-(imidazol-4-yl)ethyl)])-NH2)
大肠 (large intestine) uptake, individual animals [4]: 0.167 %ID/g and 0.091 %ID/g and 0.094 %ID/g and 0.109 %ID/g | 大肠 (large intestine) uptake, mean [4]: 0.115 %ID/g | 小肠 (small intestine) uptake, individual animals [4]: 1.124 %ID/g and 1.247 %ID/g and 1.166 %ID/g and 1.624 %ID/g | 小肠 (small intestine) uptake, mean [4]: 1.290 %ID/g | 肌肉 (muscle) uptake, individual animals [4]: 0.077 %ID/g and 0.075 %ID/g | 脊骨 (spine) uptake, individual animals [4]: 0.268 %ID/g | LS174T tumour uptake (LS174T肿瘤 [2]; 6.0 nmol TF2 16 h before, 0.25 nmol peptide): 10.6±1.7 %ID/g | bone uptake (LS174T肿瘤 [2]; mouse, in vivo): 0.54±0.2 %ID/g | CaPan1 tumour uptake (CaPan1异种移植物): 4.6±0.9 %ID/g | 小肠 (small intestine) uptake, individual animals (LS174 T异种移植物; TF2 163.2μg 16 h before): 0.185 %ID/g | 肌肉 (muscle) uptake, individual animals (LS174 T异种移植物; TF2 163.2μg 16 h before): 0.064 %ID/g | 肝 (liver) uptake, individual animals (LS174 T异种移植物; TF2 163.2μg 16 h before): 0.196 %ID/g and 0.180 %ID/g | 肝 (liver) uptake, mean (LS174 T异种移植物; TF2 163.2μg 16 h before): 0.172 %ID/g | 股骨 (femur) uptake, mean (LS174 T异种移植物; TF2 163.2μg 16 h before): 0.625 %ID/g | 肺 (lung) uptake, individual animals (LS174 T异种移植物; TF2 163.2μg 16 h before): 0.474 %ID/g and 0.230 %ID/g | 胃 (stomach) uptake, mean (LS174 T异种移植物; TF2 163.2μg 16 h before): 0.218 %ID/g | 脾 (spleen) uptake, individual animals (LS174 T异种移植物; TF2 163.2μg 16 h before): 0.239 %ID/g and 0.118 %ID/g and 0.140 %ID/g | 大肠 (large intestine) uptake, individual animals (LS174 T异种移植物; no pretargeting antibody): 0.118 %ID/g | 大肠 (large intestine) uptake, mean (LS174 T异种移植物; no pretargeting antibody): 0.072 %ID/g | 肝 (liver) uptake, individual animals (LS174 T异种移植物; no pretargeting antibody): 0.141 %ID/g (2×) and 0.200 %ID/g and 0.185 %ID/g | 股骨 (femur) uptake, individual animals (LS174 T异种移植物; no pretargeting antibody): 0.080 %ID/g | 股骨 (femur) uptake, mean (LS174 T异种移植物; no pretargeting antibody): 0.100 %ID/g | 脑 (brain) uptake, individual animals (LS174 T异种移植物; no pretargeting antibody): 0.077 %ID/g | 脾 (spleen) uptake, mean (LS174 T异种移植物; no pretargeting antibody): 0.118 %ID/g

Compound: C-NETA-琥珀酰-D-Lys(HSG)-D-Tyr-D-Lys(HSG)-NH2 [IMP 467]
decomposition of 18F-labelled peptide in serum ([5]; HLB-purified, human serum 37℃, 5 h): 没有可检测的分解

Compound: DLIEEAASRIVDAVIEQVKAAGAY [Ht-31]
PKA isoform preference (RIIα二聚体): 对PKA的RII同种型更大的亲和力

histamine-related pharmacological activity in animals [6]: 没有与组胺组分相关的肽的药理活性
Compound: DOTA-D-Tyr-D-Lys(HSG)-D-Glu-D-Lys(HSG)-NH2 [IMP 288]
antagonist or agonist activity at histamine receptors (H1和H2组胺受体): 没有拮抗或激动活性

Compound: DTPA-Dpr(DTPA)-D-Ala-D-Lys(HSG)-D-Ala-D-Lys(HSG)-NH2 [IMP 333]
blocking of 125I-BBN binding (PC-3细胞): 不能

Compound: FEELAWKIAKMIWSDVFQQC [PV-38]
PKA isoform preference (RIIα二聚体): 对RI更大的亲和力

Compound: LEQYANQLADQIIKEATE [RIAD]
PKA isoform preference (RIIα二聚体): 对RI更大的亲和力

Compound: NOTA-ITC苄基-D-Ala-D-Lys(HSG)-D-Tyr-D-Lys(HSG)-NH2 [IMP 449]
activity still attached to peptide ([5]; 15 min): 9.8 % | activity still attached to peptide ([5]; 1 h): 7.6 % | decomposition of metal-18F-peptide complex ([5]; prepared with ascorbic acid as stabiliser, serum 37℃, 4 h): 没有可检测的分解 | 18F-labelled peptide stable in serum ([5]; human serum 37℃, at least 1 h): 91 % | 18F-labelled peptide stable in serum ([5]; human serum 37℃, at least 4 h): 76 %
